Drawing on US20260256751A1, “COMBINATION OF BETA-2-ADRENERGIC RECEPTOR AGONISTS AND GLP-1 RECEPTOR AGONISTS FOR USE IN TREATING HYPERGLYCAEMIA” (ATROGI AB, priority 2023, published 2026), this text covers Emax for 31 compounds.

Test [1] has as its system differentiated L6-myotubes. The test is described as follows: Glucose uptake screen (Biological example 1 of WO 2019/053427). The test is classed as cell-based. Conditions: compound at 10 μM, activity relative to isoproterenol at 10 μM, read-out: Biological example 1 of WO 2019/053427 (GU). The gist of the method:
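Uptake was read out as ^3H-2-deoxyglucose (50 nM, 10 min) radioactivity in NaOH lysates. Beforehand, overnight-starved, differentiated L6 myotubes received compound at 1×10^−5 M with ICI-118551 present for 1 h 40 min, followed by fresh agonist for a further 20 min in glucose-free medium.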

Test [2] deals with differentiated L6-myotubes. Kind of test: cAMP production relative to isoprenaline (Biological example 2 of WO 2019/053427). The test is classed as cell-based. Particulars: 0.25 h, compound at 10 μM, activity relative to isoproterenol at 10 μM. Summed up:
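Values are cAMP levels relative to isoprenaline at equal concentration (final 1×10^−5 M for both). Stimulation lasted 15 min in differentiated L6 myotubes, using HBSS buffer (pH 7.4) containing 1 mM IBMX, 5 mM HEPES and 1% BSA.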

On to `CO[C@H]1CC[C@@H](CCC(C)(C)NC[C@H](O)c2cccc(F)c2)CC1` [Compound 264, (R)-2-{1,1-dimethyl-3-[(1s,R)-4-methoxycyclohexyl]propyl-amino}-1-(m-fluorophenyl)-1-ethanol], for which the Emax at 10 µM was more than 75% in test [1] and 25 to 50% in test [2].
Consider `CO[C@H]1CC[C@H](CCC(C)(C)NC[C@H](O)c2cccc(F)c2)CC1` [Compound 265, (R)-2-{1,1-dimethyl-3-[(1r,4S)-4-methoxycyclohexyl]propyl-amino}-1-(m-fluorophenyl)-1-ethanol], for which the results for the Emax at 10 µM in test [1] and in test [2] were 50 to 75% and less than 25%, respectively.
`CO[C@H]1CC[C@@H](CCC(C)(C)NC[C@H](O)c2cncc(F)c2)CC1` [Compound 266]: the Emax at 10 µM in test [1] was more than 75%; in test [2], less than 25%.
The like results for `CO[C@H]1CC[C@H](CCC(C)(C)NC[C@H](O)c2cncc(F)c2)CC1` [Compound 267, (R)-2-{1,1-dimethyl-3-[(1r,4S)-4-methoxycyclohexyl]propyl-amino}-1-(5-fluoro-3-pyrdiyl)-1-ethanol] were, in that order, 25 to 50% and less than 25%.
The like results for `O[C@@H](CNC[C@H]1CC[C@@H](O)CC1)c1cccc(F)c1` [Compound 268, (R)-1-(m-fluorophenyl)-2-({[(1s,4S)-4-hydroxycyclohexyl]meth-yl}amino)-1-ethanol] were, in that order, 25 to 50% and less than 25%.
The like results for `O[C@@H](CNC[C@H]1CC[C@@H](O)CC1)c1cncc(F)c1` [Compound 269, (R)-1-(5-fluoro-3-pyridyl)-2-({[(1s,4S)-4-hydroxycyclohexyl]meth-yl}amno)-1-ethanol] were, in that order, 25 to 50% and less than 25%.
Regarding `CO[C@H]1CCC[C@@H](C(C)(C)NC[C@H](O)c2cncc(F)c2)C1` [Compound 270, (R)-2-{1-[(1R,3S)-3-methoxycyclohexyl]-1-methylethylamino}-1-(5-fluoro-3-pyridyl)-1-ethanol], the Emax at 10 µM in test [1] was more than 75%; in test [2], 50 to 75%.
For `O[C@@H](CNC[C@H]1CC[C@H](OCc2ccccc2)CC1)c1cccc(F)c1` [Compound 271, (R)-1-(m-fluorophenyl)-2-({[(1r,4R)-4-(benzyloxy)cyclohexyl]methyl}amino)-1-ethanol] the same measures were 25 to 50% and less than 25%.
For `O[C@@H](CNC[C@H]1CC[C@H](O)CC1)c1cccc(F)c1` [Compound 272, (R)-1-(m-fluorophenyl)-2-({[(1r,4R)-4-hydroxycycloehxyl]meth-yl}amino)-1-ethanol] the same measures were 25 to 50% and less than 25%.
For `O[C@@H](CNC[C@H]1CC[C@H](OCc2ccccc2)CC1)c1cncc(F)c1` [Compound 273, (R)-1-(5-fluoro-3-pyrdiyl)-2-({[(1r,4R)-4-(benzyloxy)cyclohexyl]methyl}amino)-1-ethanol] the same measures were 25 to 50% and less than 25%.
Turning to `O[C@@H](CNC[C@H]1CC[C@H](O)CC1)c1cncc(F)c1` [Compound 274, (R)-1-(5-fluoro-3-pyridyl)-2-({[(1r,4R)-4-hydroxycyclohexyl]meth-yl}amino)-1-ethanol], the Emax at 10 µM in test [1] and in test [2] was less than 25% each time.
Consider `O[C@@H](CNCCC[C@H]1CC[C@@H](OCc2ccccc2)CC1)c1cncc(F)c1` [Compound 275, (R)-1-(5-fluoro-3-pyridyl)-2-{3-[(1s,4R)-4-(benzyloxy)cyclohexyl]pro-pylamino}-1-ethanol], for which the values for the Emax at 10 µM in test [1] and in test [2] were 50 to 75% and less than 25%, respectively.
With `O[C@@H](CNCCC[C@H]1CC[C@H](OCc2ccccc2)CC1)c1cncc(F)c1` [Compound 276, (R)-1-(5-fluoro-3-pyridyl)-2-{3-[(1r,4S)-4-(benzyloxy)cyclohexyl]pro-pylamino}-1-ethanol], the Emax at 10 µM was 25 to 50% in test [1] and less than 25% in test [2].
The like results for `O[C@@H](CNCCC[C@H]1CC[C@@H](OCc2ccccc2)CC1)c1cccc(F)c1` [Compound 277, (R)-1-(m-fluorophenyl)-2-{3-[(1s,4R)-4-(benzyloxy)cyclohexyl]pro-pylamino}-1-ethanol] were, in that order, 25 to 50% and less than 25%.
`O[C@@H](CNCCC[C@H]1CC[C@H](OCc2ccccc2)CC1)c1cccc(F)c1` [Compound 278, (R)-1-(m-fluoropheny)-2-{3-[(1r,4S)-4-(benzyloxy)cyclohexyl]pro-pylamino}-1-ethanol]: the Emax at 10 µM in test [1] was 25 to 50%; in test [2], less than 25%.
`CC(C)(NC[C@H](O)c1cccc(F)c1)[C@H]1CC[C@H](OCc2ccccc2)CC1` [Compound 279, (R)-1-(m-fluorophenyl)-2-{1-methyl-1-[(1r,4R)-4-(benzyloxy)cyclohexyl]eth-ylamino}-1-ethanol]: the Emax at 10 µM in test [1] was 50 to 75%; in test [2], less than 25%.
As to `CC(C)(NC[C@H](O)c1cccc(F)c1)[C@H]1CC[C@@H](OCc2ccccc2)CC1` [Compound 280, (R)-1-(m-fluorophenyl)-2-{1-methyl-1-[(1s,4S)-4-(benzyloxy)cyclohexyl]eth-ylamino}-1-ethanol], the figures for the Emax at 10 µM in test [1] and in test [2] were more than 75% and less than 25%, respectively.
Consider `CC(C)(NC[C@H](O)c1cncc(F)c1)[C@H]1CC[C@H](OCc2ccccc2)CC1` [Compound 281, (R)-1-(5-fluoro-3-pyridyl)-2-{1-methyl-1-[(1r,4R)-4-(benzyloxy)cyclohexyl]eth-ylamino}-1-ethanol], for which the Emax at 10 µM in test [1] was 50 to 75%; in test [2], less than 25%.
As for `CC(C)(NC[C@H](O)c1cncc(F)c1)[C@H]1CC[C@@H](OCc2ccccc2)CC1` [Compound 282, (R)-1-(5-fluoro-3-pyridyl)-2-{1-methyl-1-[(1s,4S)-4-(benzyloxy)cylcohexyl]eth-ylamino}-1-ethanol], the Emax at 10 µM in test [1] is 50 to 75%; in test [2], less than 25%.
For `CC(C)(NC[C@H](O)c1cccc(F)c1)[C@H]1CC[C@H](O)CC1` [Compound 283, (R)-1-(m-fluorophenyl)-2-{1-methyl-1-[(1r,4R)-4-hydroxycyclohexyl]ethyl-amino}-1-ethanol] the same measures were 50 to 75% and less than 25%.
For `CC(C)(NC[C@H](O)c1cccc(F)c1)[C@H]1CC[C@@H](O)CC1` [Compound 284, (R)-1-(m-fluorophenyl)-2-{1-methyl-1-[(1s,4S)-4-hydroxycyclohexyl]ethyl-amino}-1-ethanol] the same measures were 50 to 75% and less than 25%.
For `CC(C)(NC[C@H](O)c1cncc(F)c1)[C@H]1CC[C@H](O)CC1` [Compound 285, (R)-1-(5-fluoro-3-pyridyl)-2-{1-methyl-1-[(1r,4R)-4-hydroxycyclohexyl]ethyl-amino}-1-ethanol] the same measures were 50 to 75% and less than 25%.
For the compound `CC(C)(NC[C@H](O)c1cncc(F)c1)[C@H]1CC[C@@H](O)CC1` [Compound 286, (R)-1-(5-fluoro-3-pyridyl)-2-{1-methyl-1-[(1s,4S)-4-hydroxycyclohexyl]ethyl-amino}-1-ethanol], the values for the Emax at 10 µM in test [1] and in test [2] were 25 to 50% and less than 25%, respectively.
For `O[C@@H](CNCC[C@H]1CC[C@@H](OCc2ccccc2)CC1)c1cccc(F)c1` [Compound 287, (R)-1-(m-fluorophenyl)-2-{2-[(1s,4S)-4-(benzyloxy)cyclohexyl]eth-ylamino}-1-ethanol] the same measures were 50 to 75% and less than 25%.
The like results for `O[C@@H](CNCC[C@H]1CC[C@H](OCc2ccccc2)CC1)c1cccc(F)c1` [Compound 288, (R)-1-(m-fluorophenyl)-2-{2-[(1r,4R)-4-(benzyloxy)cyclohexyl]eth-ylamino}-1-ethanol] were, in that order, 25 to 50% and less than 25%.
For `CC(C)(CC[C@H]1CC[C@H](O)CC1)NC[C@H](O)c1cncc(F)c1` [Compound 289, (R)-2-{1,1-dimethyl-3-[(1r,4S)-4-hydroxycyclohexyl]propyl-amino}-1-(5-fluoro-3-pyridyl)-1-ethanol] the same measures were 25 to 50% and less than 25%.
`CC(C)(CC[C@H]1CC[C@H](O)CC1)NC[C@H](O)c1cccc(F)c1` [Compound 290, (R)-2-{1,1-dimethyl-3-[(1r,4S)-4-hydroxycyclohexyl]propyl-amino}-1-(m-fluorophenyl)-1-ethanol]: the Emax at 10 µM is 25 to 50% in test [1] and less than 25% in test [2].
As for `O[C@@H](CNCC[C@H]1CC[C@@H](OCc2ccccc2)CC1)c1cncc(F)c1` [Compound 291, (R)-1-(5-fluoro-3-pyridyl)-2-{2-[(1s,4S)-4-(benzyloxy)cyclohexyl]ethylamino}-1-ethanol], the results for the Emax at 10 µM in test [1] and in test [2] were 50 to 75% and less than 25%, respectively.
Regarding `O[C@@H](CNCC[C@H]1CC[C@H](OCc2ccccc2)CC1)c1cncc(F)c1` [Compound 292, (R)-1-(5-fluoro-3-pyridyl)-2-{2-[(1r,4R)-4-(benzyloxy)cyclohexyl]ethylamino}-1-ethanol], the Emax at 10 µM in test [1] and in test [2] was less than 25% each time.
On to `O[C@@H](CNCC[C@H]1CC[C@@H](O)CC1)c1cncc(F)c1` [Compound 293, (R)-1-(5-fluoro-3-pyridyl)-2-{2-[(1s,4S)-4-hydroxycyclohexyl]ethylamino}-1-ethanol], for which the results for the Emax at 10 µM in test [1] and in test [2] were 25 to 50% and less than 25%, respectively.
Regarding `O[C@@H](CNCC[C@H]1CC[C@H](O)CC1)c1cncc(F)c1` [Compound 294, (R)-1-(5-fluoro-3-pyridyl)-2-{2-[(1r,4R)-4-hydroxycyclohexyl]ethylamino}-1-ethanol], the Emax at 10 µM in test [1] was 25 to 50%; in test [2], less than 25%.
